# Source: patent US11472798B2 (Mission Therapeutics Limited, priority 2014, dated 2022)
# Molecular target: T1, UCHL1 (Homo sapiens, UniProt P09936)
# T1 construct: made in house; host or cells: HEK293T
# T1 sequence (P09936 1-223): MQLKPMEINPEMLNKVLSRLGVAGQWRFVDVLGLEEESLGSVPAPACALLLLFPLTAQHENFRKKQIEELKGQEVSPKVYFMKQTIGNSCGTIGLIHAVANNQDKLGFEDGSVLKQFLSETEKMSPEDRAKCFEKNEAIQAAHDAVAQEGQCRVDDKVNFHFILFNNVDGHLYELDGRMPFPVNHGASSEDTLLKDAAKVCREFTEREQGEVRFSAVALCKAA
# Assay: UCHL1 biochemical IC50 assay (fluorescence polarisation)
# Details: 30 min enzyme/compound pre-incubation at room temp, read after 2 hr incubation, read-out: Activity range (UCHL1 biochemical IC50 assay)
# Outline: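 Fluorescence polarisation (ex 540/em 590 nm) of 50 nM TAMRA-labelled ubiquitin–peptide isopeptide substrate was read at time zero and after 2 h at room temperature. Compounds (100–0.03 μM final, in duplicate) were given 30 min preincubation with N-FLAG UCHL1 from HEK293T cells in pH 7.5 Tris buffer.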
row,IC50,Structure (SMILES)
1,< 1 µM,"C[C@H]1[C@@H](C(=O)Nc2cc(-c3ccccc3)[nH]n2)CCN1C#N [Example 75, (2S,3S)-1-cyano-2-methyl-N-(5-phenyl-1H-pyrazol-3-yl)pyrrolidine-3-carboxamide]"
2,< 1 µM,"CC(C)S(=O)(=O)N1CCc2nc(NC(=O)[C@H]3CCN(C#N)C3)sc2C1 [Example 203, (S)-1-cyano-N-(5-(isopropylsulfonyl)-4,5,6,7-tetrahydrothiazolo[5,4-c]pyridin-2-yl)pyrrolidine-3-carboxamide]"
3,1 to 10 µM,"N#CN1CCC(C(=O)Nc2ncc(CN3CCCC3)s2)C1 (stereo not shown) [Example 141, 1-cyano-N-(5-(pyrrolidin-1-ylmethyl)thiazol-2-yl)pyrrolidine-3-carboxamide]"
4,< 1 µM,"Cc1nc(NC(=O)[C@H]2CCN(C#N)C2)cn1Cc1ccccc1 [Example 178, (S)—N-(1-benzyl-2-methyl-1H-imidazol-4-yl)-1-cyanopyrrolidine-3-carboxamide]"
5,1 to 10 µM,"CC(=O)Nc1ccccc1-c1cnc(NC(=O)C2CCN(C#N)C2)s1 (stereo not shown) [Example 115, N-(5-(2-acetamiclophenyl)thiazol-2-yl)-1-cyanopyrrolidine-3-carboxamide]"
6,1 to 10 µM,"N#CN1CCC(C(=O)Nc2cc(-c3ccccc3)on2)C1 (stereo not shown) [Example 15, 1-cyano-N-(5-phenylisoxazol-3-yl)pyrrolidine carboxamide]"
7,< 1 µM,"N#CN1CC[C@H](C(=O)Nc2cn(-c3ccccc3)cn2)C1 [Example 41, (S)-1-cyano-N-(1-phenyl-1H-imidazol-4-yl)pyrrolidine-3-carboxamide]"
8,< 1 µM,"N#CN1CC[C@H](C(=O)Nc2cn3cc(Br)ccc3n2)C1 [Example 51, (S)-N-(6-bromoimidazo[1,2-a]pyridin-2-yl)-1-cyano-pyrrolidine-3-carboxamide]"
9,< 1 µM,"N#CN1CC[C@H](C(=O)Nc2cn(-c3cccc(F)c3)cn2)C1 [Example 151, (S)-1-cyano-N-(1-(3-fluorophenyl)-1H-imidazol-4-yl)pyrrolidine-3-carboxamide]"
10,< 1 µM,"COCCOc1cc(-n2cnc(NC(=O)[C@H]3CCN(C#N)C3)c2)ccc1C#N [Example 243, (S)-1-cyano-N-(1-(4-cyano-3-(2-methoxyethoxy)phenyl)-1H-imidazol-4-yl)pyrrolidine-3-carboxamide]"
11,1 to 10 µM,"N#CN1CC[C@H](C(=O)Nc2cc(-c3cccc(Cl)c3)ncn2)C1 [Example 257, (S)-N-(6-(3-chlorophenyl)pyrimidin-4-yl)-1-cyanopyrrolidine-3-carboxamide]"
12,< 1 µM,"Cc1n[nH]c2cc(-n3cnc(NC(=O)[C@H]4CCN(C#N)C4)c3)ccc12 [Example 299, (S)-1-cyano-N-(1-(3-methyl-1H-indazol-6-yl)-1H-imidazol-4-yl)pyrrolidine-3-carboxamide]"
13,< 1 µM,"CCNC(=O)c1cccc(-c2cnc(NC(=O)[C@H]3CCN(C#N)C3)s2)c1 [Example 234, (S)-1-cyano-N-(5-(3-(ethylcarbamoyl)phenyl)thiazol-2-yl)pyrrolidine-3-carboxamide]"
14,< 1 µM,"N#CN1CC[C@H](C(=O)Nc2cc(-c3cccc4[nH]ncc34)ccn2)C1 [Example 262, (S)—N-(4-(1H-indazol-4-yl)pyridin-2-yl)-1-cyanopyrrolidine-3-carboxamide]"
15,< 1 µM,"Cc1nn(C)c2ccc(-n3cnc(NC(=O)[C@H]4CCN(C#N)C4)c3)cc12 [Example 298, (S)-1-cyano-N-(1-(1,3-dimethyl-1H-indazol-5-yl)-1H-imidazol-4-yl)pyrrolidine-3-carboxamide]"
16,< 1 µM,"N#CN1CC[C@H](C(=O)Nc2cn(C3CCCN(Cc4ccccc4)C3)cn2)C1 (stereo partly drawn) [Example 186, (3S)—N-(1-(1-benzylpiperidin-3-yl)-1H-imidazol-4-yl)-1-cyanopyrrolidine-3-carboxamide]"
17,1 to 10 µM,"Cc1nccc(-n2cnc(NC(=O)[C@H]3CCN(C#N)C3)c2)n1 [Example 176, (S)-1-cyano-N-(1-(2-methylpyrimidin-4-yl)-1H-imidazol-4-yl)pyrrolidine-3-carboxamide]"
18,< 1 µM,"CNC(=O)c1cccc(-c2cnc(NC(=O)[C@H]3CCN(C#N)C3)s2)n1 [Example 224, (S)-6-(2-(1-cyanopyrrolidine-3-carboxamido)thiazol-5-yl)-N-methylpicolinamide]"
19,< 1 µM,"CNC(=O)c1ccc(-n2cnc(NC(=O)[C@H]3CCN(C#N)C3)c2)cc1 [Example 155, (S)-1-cyano-N-(1-(4-(methylcarbamoyl)phenyl)-1H-imidazol-4-yl)pyrrolidine-3-carboxamide]"
20,< 1 µM,"Cc1noc(C)c1CCn1cnc(NC(=O)[C@H]2CCN(C#N)C2)c1 [Example 179, (S)-1-cyano-N-(1-(2-(3,5-dimethylisoxazol-4-yl)ethyl)-1H-imidazol-4-yl)pyrrolidine-3-carboxamide]"
21,10 to 30 µM,"N#CN1CCC(C(=O)Nc2nc3ccccc3[nH]2)C1 (stereo not shown) [Example 23, N-(1H-benzo[d]imidazol-2-yl)-1-cyano-pyrrolidine-3-carboxamide]"
22,1 to 10 µM,"N#CN1CC[C@H](C(=O)Nc2cn(-c3ccccc3)nn2)C1 [Example 44, (S)-1-cyano-N-(1-phenyl-1H-1,2,3-triazol-4-yl)pyrrolidine-3-carboxamide]"
23,< 1 µM,"Cn1ncc2cc(-c3cnc(NC(=O)[C@H]4CCN(C#N)C4)s3)ccc21 [Example 226, (S)-1-cyano-N-(5-(1-methyl-1H-indazol-5-yl)thiazol-2-yl)pyrrolidine-3-carboxamide]"
24,< 1 µM,"COc1cccc(-n2cnc(NC(=O)[C@H]3CCN(C#N)C3)c2)c1 [Example 183, (S)-1-cyano-N-(1-(3-methoxyphenyl)-1H-imidazol-4-yl)pyrrolidine-3-carboxamide]"
25,1 to 10 µM,"N#CN1C[C@@H](C(=O)Nc2ncc(-c3ccccc3)s2)[C@H](c2cccnc2)C1 (relative stereo) [Example 282, trans-1-cyano-N-(5-phenylthiazol-2-yl)-4-(pyridin-3-yl)pyrrolidine-3-carboxamide]"
26,1 to 10 µM,"CC1(C(=O)Nc2ncc(-c3ccccc3)s2)CCN(C#N)C1 (stereo not shown) [Example 78, 1-cyano-3-methyl-N-(5-phenylthiazol-2-yl)pyrrolidine-3-carboxamide]"
27,1 to 10 µM,"N#CN1CC[C@H](C(=O)Nc2cccc(-c3ccccc3)n2)C1 [Example 55, (S)-1-cyano-N-(6-phenylpyridin-2-yl)pyrrolidine 3-carboxamide]"
28,< 1 µM,"N#CN1CC[C@H](C(=O)Nc2cn(-c3ccc4[nH]ncc4c3)cn2)C1 [Example 300, (S)-N-(1-(1H-indazol-5-yl)-1H-imidazol-4-yl)-1-cyanopyrrolidine-3-carboxamide]"
